Measurements: patent US7495027B2, “3-aryl-4-hydroxyfuranone compounds and the human and animal health use thereof” (Wyeth, priority 2003, dated 2009)
In brackets after ≈: the same amount, converted by molar mass. Read-outs that look alike come from different tables or passages of the source.

Legend:
[1] = biological target: T1, S. aureus Uridine-diphosphate-N-acetvimuramoyl: L-alanine lipase, MurC (Staphylococcus aureus, UniProt Q2FXJ0); test: biochemical; settings: (S) S. aureus enzyme; for IC50: read-out: MurC IC50 (converted)
T1 sequence (Q2FXJ0 1-437): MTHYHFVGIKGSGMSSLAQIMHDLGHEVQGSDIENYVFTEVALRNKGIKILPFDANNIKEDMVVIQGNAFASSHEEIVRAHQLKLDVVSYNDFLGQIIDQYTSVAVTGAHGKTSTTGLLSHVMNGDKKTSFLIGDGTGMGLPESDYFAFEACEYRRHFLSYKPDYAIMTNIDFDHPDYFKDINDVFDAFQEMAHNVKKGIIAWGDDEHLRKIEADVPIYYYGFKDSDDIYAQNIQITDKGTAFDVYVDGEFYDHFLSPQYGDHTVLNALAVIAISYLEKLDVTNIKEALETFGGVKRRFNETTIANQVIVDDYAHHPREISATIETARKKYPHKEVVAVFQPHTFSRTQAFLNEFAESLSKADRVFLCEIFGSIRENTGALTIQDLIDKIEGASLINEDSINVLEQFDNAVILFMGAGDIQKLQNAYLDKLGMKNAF
Description: S. aureus and E. coli Uridine-diphosphate-N-acetvimuramoyl: L-alanine lipase, MurC
Preparation of Enzyme Solution:
A 1 mg/mL stock solution of MurC is prepared in a buffer consisting of 20 mM Tris/HCl (pH 8.5) with 2.5 μM BME. The stock solution is further diluted with the buffer to give a final enzyme concentration of 100 μg/mL for the E. coli stock solution and 70 μg/mL for the S. aureus stock solution.
Preparation of Test Compound Solutions:
All test solutions are prepared in DMSO as 10 mg/mL, then diluted with 50 mM Tris/HCl (pH 8.5) to 100 μg/mL.
Preparation of Stop Solution:
The stop solution is prepared by stirring 1 part 4.2% ammonium molydbate in 4N HCl with 2 parts 0.045% malachite green for 30 min.
In this evaluation, the inhibitory activity of a test compound against MurC, the enzyme which catalyzes the third step of bacterial cell wall bioxynthesis is determined. Experiments are performed by adding 2.5 μl buffer, 2.5 μl 0.5M NH4SO2, 5 μl 2 μM L-Ala, 5 μl enzyme solution and 6.5 μl test compound solution to each well in a 96-well microplate. After a pre-incubation period of 10 mins. at 23° C., 3.75 μl of a 0.75 μM solution of UDP-MurNac is added to each well. Following an incubation period of 10 mins. at 37° C., 210 μl stop solution and 50 μl of a 34% w/v sodium citrate solution are added and color is allowed to develop for 10 mins. at 23° C. (Lanzetta et al., Analytical Biochemistry, 1979, 95) Optical density readings are taken at 660 nm using a Molecular Devices Spectra Max 250 with Soft Max software. Controls are performed using the same procedure and omitting the addition of UDP-MurNac. […]
Using these values the IC50 is determined by linear regression analysis.

[2] = biological target: T2, S. aureus Uridine-diphosphate-N-acetylmuramoyl-L-alanine: D-glutamate liease, MurD (Staphylococcus aureus, UniProt Q2FZ92); test: biochemical; settings: (S) S. aureus enzyme
T2 sequence (Q2FZ92 1-449): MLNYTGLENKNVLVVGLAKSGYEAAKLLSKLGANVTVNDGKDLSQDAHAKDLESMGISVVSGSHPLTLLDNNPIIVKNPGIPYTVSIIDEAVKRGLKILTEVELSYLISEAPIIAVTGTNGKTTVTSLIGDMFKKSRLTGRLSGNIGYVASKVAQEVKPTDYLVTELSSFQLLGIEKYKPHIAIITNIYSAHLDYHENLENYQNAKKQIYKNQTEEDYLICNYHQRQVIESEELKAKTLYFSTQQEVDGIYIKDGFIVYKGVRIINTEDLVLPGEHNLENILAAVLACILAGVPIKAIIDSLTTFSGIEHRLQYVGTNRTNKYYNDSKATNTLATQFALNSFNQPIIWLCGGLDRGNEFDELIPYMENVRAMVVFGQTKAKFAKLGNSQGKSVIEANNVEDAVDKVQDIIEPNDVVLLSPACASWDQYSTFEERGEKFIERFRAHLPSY
Outline: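 Test solutions, 10 mg/mL stocks in DMSO, were brought to 100 μg/mL with 50 mM Tris/HCl (pH 8.5). Their inhibition of MurD, the enzyme of the fourth cell wall biosynthesis step, was measured.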

staphylococci = test: Minimum inhibitory concentration, microdilution broth method, staphylococci; format: cell-based; settings: Mueller-Hinton broth, 18-22 hours at 35° C.; for MIC: Staphylococcus aureus
Outline: (§1)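 Strep: Mueller-Hinton + 5% horse blood (LHB). Enterococci, staph: Mueller-Hinton broth alone. Microdilution format per NCCLS M7-A5 2000; isolates include resistant clinical strains.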

enterococci = test: Minimum inhibitory concentration, microdilution broth method, enterococci; format: cell-based; settings: Mueller-Hinton broth, 18-22 hours at 35° C.; for MIC: Enterococcus faecalis
Outline: as §1

Streptococci = test: Minimum inhibitory concentration, microdilution broth method, streptococci; format: cell-based; settings: Mueller-Hinton broth with 5% horse blood, 18-22 hours at 35° C.; for MIC: S. pneumo GC 1894
Outline: as §1

[3] = S. aureus GC 1131, read-out: MIC S. aureus GC 1131
[4] = S. aureus GC 4543, read-out: MIC S. aureus GC 4543
[5] = E. faecalis GC 2242, read-out: MIC E. faecalis GC 2242
[6] = E. faecalis GC 4555, read-out: MIC E. faecalis GC 4555

Row | Structure (SMILES) | IC50 [1] [µM] | IC50 [2] [µM] | MIC (staphylococci; [3]) [µg/mL] | MIC (staphylococci; [4]) [µg/mL] | MIC (enterococci; [5]) [µg/mL] | MIC (enterococci; [6]) [µg/mL] | MIC (Streptococci) [µg/mL] | MurC IC50 [1] | MurD IC50 [2] | MIC S. aureus GC 1131 (staphylococci; S. aureus GC 1131) [µg/mL] | MIC S. aureus GC 4543 (staphylococci; S. aureus GC 4543) [µg/mL] | MIC E. faecalis GC 2242 (enterococci; E. faecalis GC 2242) [µg/mL] | MIC E. faecalis GC 4555 (enterococci; E. faecalis GC 4555) [µg/mL] | MIC S. pneumo GC 1894 (Streptococci) [µg/mL]
1 | O=C1O/C(=C\c2ccc(Cl)cc2)C(O)=C1c1ccc(-c2ccccc2)c(F)c1 [Example 138] | 20.4 | 35.6 | 4 (≈ 10.2 µM) | 4 (≈ 10.2 µM) | 4 (≈ 10.2 µM) | 8 (≈ 20.4 µM) | 0.5 (≈ 1.27 µM) |  |  |  |  |  |  | 
2 | O=C1O/C(=C\c2cccc3ccccc23)C(O)=C1c1cc(Cl)cc(Cl)c1 [Example 70] | 20.9 | 23.5 | 2 (≈ 5.22 µM) | 1 (≈ 2.61 µM) | 2 (≈ 5.22 µM) | 2 (≈ 5.22 µM) | 0.5 (≈ 1.3 µM) |  |  |  |  |  |  | 
3 | O=C1OC(=Cc2cccc3ccccc23)C(O)=C1c1ccc(C=NO)cc1 (mixture of isomers) [Example 73] |  |  |  |  |  |  |  | 23 µg/mL | >25 (E); >25 (S) μg/mL | >128 | >128 | >128 | >128 | 64
4 | O=C1O/C(=C\c2ccccc2-c2ccc(Cl)c(Cl)c2)C(O)=C1c1ccc(Cl)c(Cl)c1 [Example 141] | > 52.3 | 6.27 | 0.5 (≈ 1.05 µM) | 0.25 (≈ 0.523 µM) | 0.5 (≈ 1.05 µM) | 1 (≈ 2.09 µM) | < 0.125 |  |  |  |  |  |  | 
5 | O=C1O/C(=C\c2ccc(-c3ccccc3)cc2)C(O)=C1c1ccc(Cl)cc1 [Example 53] | 18.7 | 42.7 | 16 (≈ 42.7 µM) | 16 (≈ 42.7 µM) | 4 (≈ 10.7 µM) | 8 (≈ 21.3 µM) | 0.5 (≈ 1.33 µM) |  |  |  |  |  |  | 
6 | O=C1O/C(=C\c2ccc3ccccc3c2)C(O)=C1c1ccc2ccccc2c1 [Example 52] | > 68.6 | 54.9 | 16 (≈ 43.9 µM) | 16 (≈ 43.9 µM) | 4 (≈ 11 µM) | 8 (≈ 22 µM) | 0.5 (≈ 1.37 µM) |  |  |  |  |  |  | 
7 | O=C1O/C(=C\c2ccc(-c3ccccc3)cc2)C(O)=C1c1cccc(Cl)c1 [Example 69] | 13.3 | 18.7 | 2 (≈ 5.34 µM) | 1 (≈ 2.67 µM) | 0.5 (≈ 1.33 µM) | 0.5 (≈ 1.33 µM) | 0.25 (≈ 0.667 µM) |  |  |  |  |  |  | 
8 | CN(C)c1ccc(/C=C2\OC(=O)C(c3cc(Cl)cc(Cl)c3)=C2O)c2ccccc12 [Example 79] | 56.3 | 32.8 | 2 (≈ 4.69 µM) | 1 (≈ 2.35 µM) | 4 (≈ 9.38 µM) | 8 (≈ 18.8 µM) | 0.5 (≈ 1.17 µM) |  |  |  |  |  |  | 
9 | O=Cc1cccc(C2=C(O)/C(=C/c3cccc4ccccc34)OC2=O)c1 [Example 76] | 52.6 | > 73 | > 128 | > 128 | > 128 | > 128 | 64 (≈ 187 µM) |  |  |  |  |  |  | 
10 | O=C1O/C(=C\c2cccc3ccccc23)C(O)=C1c1ccc(-c2ccccc2)cc1 [R=H, R1=4-biphenyl, R2=1-naphthyl] | 48.7 | 38.4 | 8 (≈ 20.5 µM) | 4 (≈ 10.2 µM) | 4 (≈ 10.2 µM) | 16 (≈ 41 µM) | 1 (≈ 2.56 µM) |  |  |  |  |  |  | 
11 | COc1cc(/C=C2\OC(=O)C(c3cccc(Cl)c3)=C2O)ccc1-c1ccccc1C [Example 22] | 28.6 | 40.6 | 4 (≈ 9.55 µM) | 4 (≈ 9.55 µM) | 8 (≈ 19.1 µM) | 16 (≈ 38.2 µM) | 1 (≈ 2.39 µM) |  |  |  |  |  |  | 
12 | COc1cc(/C=C2\OC(=O)C(c3cc(Cl)cc(Cl)c3)=C2O)ccc1-c1ccccc1Cl [Example 21] | 42.2 | 16.9 | 1 (≈ 2.11 µM) | 0.5 (≈ 1.06 µM) | 2 (≈ 4.22 µM) | 4 (≈ 8.44 µM) | 0.5 (≈ 1.06 µM) |  |  |  |  |  |  | 
13 | COc1cc(/C=C2\OC(=O)C(c3cccc(Cl)c3)=C2O)ccc1-c1ccccc1C(F)(F)F [Example 32] | 25.4 | 19 | 2 (≈ 4.23 µM) | 2 (≈ 4.23 µM) | 4 (≈ 8.46 µM) | 8 (≈ 16.9 µM) | 0.5 (≈ 1.06 µM) |  |  |  |  |  |  | 
14 | O=C1O/C(=C\c2cccc(-c3cccc(Cl)c3)c2)C(O)=C1c1cccc(Cl)c1 [Example 134] | 51.3 | 19.5 | > 128 | 1 (≈ 2.44 µM) | 4 (≈ 9.77 µM) | 8 (≈ 19.5 µM) | 1 (≈ 2.44 µM) |  |  |  |  |  |  | 
15 | Cc1cc(C=C2OC(=O)C(c3cc(Cl)cc(Cl)c3)=C2O)ccc1-c1ccccc1Cl [Example 31] |  |  |  |  |  |  |  | >25 (S) μg/mL | 10 (S) μg/mL | 0.5 (≈ 1.09 µM) | 0.25 (≈ 0.546 µM) | 1 (≈ 2.18 µM) | 2 (≈ 4.37 µM) | 0.25 (≈ 0.546 µM)
16 | O=C1O/C(=C\c2cccc3ccccc23)C(O)=C1c1cccc(C=NO)c1 [Example 77] |  |  |  |  |  |  |  | 15 µg/mL | >25 (S) μg/mL | >128 | 64 (≈ 179 µM) | >128 | >128 | 64 (≈ 179 µM)
17 | O=C1O/C(=C\c2cccnc2)C(O)=C1c1ccc(-c2ccccc2)cc1 [Example 101] | 67.4 | > 73.2 | > 128 | > 128 | 64 (≈ 187 µM) | > 128 | 64 (≈ 187 µM) |  |  |  |  |  |  | 
18 | COc1ccccc1-c1ccc(/C=C2\OC(=O)C(c3cccc(Cl)c3)=C2O)cc1C [Example 23] | 28.6 | 23.9 | 8 (≈ 19.1 µM) | 4 (≈ 9.55 µM) | 8 (≈ 19.1 µM) | 8 (≈ 19.1 µM) | 1 (≈ 2.39 µM) |  |  |  |  |  |  | 
19 | O=C1O/C(=C\c2ccc(-c3cccc(C(F)(F)F)c3)cc2)C(O)=C1c1cccc(C(F)(F)F)c1 |  |  |  |  |  |  |  | 22 µg/mL | 15 µg/mL | 4 (≈ 8.4 µM) | 1 (≈ 2.1 µM) | 1 (≈ 2.1 µM) | 4 (≈ 8.4 µM) | <0.125
20 | COc1cccc(C2=C(O)/C(=C/c3cccc4ccccc34)OC2=O)c1 [Example 72] | > 72.6 | > 72.6 | > 128 | > 128 | > 128 | > 128 | 32 (≈ 92.9 µM) |  |  |  |  |  |  | 
21 | CCOC(=O)c1cccc(C2=C(O)C(=Cc3cccc4ccccc34)OC2=O)c1 [Example 75] |  |  |  |  |  |  |  | 20 µg/mL | >25 (E); >25 (S) μg/mL | 64 (≈ 166 µM) | >128 | >128 | 64 (≈ 166 µM) | 32 (≈ 82.8 µM)
